Test results: ChEMBL document CHEMBL1201862, “PubChem BioAssay data set” (2004)
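How tested: cells in 96-well plates exposed to compound for 48 hours at five concentrations. GI50 marks 50% less growth.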 Calls of active or inactive are those of the source. No stated cut-off is given here; in the data, active = GI50 up to about 1.1 µM and inactive = higher.

Key:
Experiment in all cases: DTP human tumour cell line panel, 48 h
[1] = tested on: SK-OV-3
[2] = tested on: CCRF-CEM
[3] = tested on: NCI-H226
[4] = tested on: DU-145
[5] = tested on: U-251
[6] = tested on: UACC-62
[7] = tested on: TK-10
[8] = tested on: SF-268
[9] = tested on: COLO 205
[10] = tested on: SF-539
[11] = tested on: HT-29
[12] = tested on: EKVX
[13] = tested on: A549
[14] = tested on: SF-295
[15] = tested on: Hs-578T
[16] = tested on: NCI-H522
[17] = tested on: SN12C
[18] = tested on: MCF7
[19] = tested on: MDA-MB-231

Row | Structure (SMILES) | GI50 [1] | GI50 [2] | GI50 [3] | GI50 [4] | GI50 [5] | GI50 [6] | GI50 [7] | GI50 [8] | GI50 [9] | GI50 [10] | GI50 [11] | GI50 [12] | GI50 [13] | GI50 [14] | GI50 [15] | GI50 [16] | GI50 [17] | GI50 [18] | GI50 [19]
1 | O=C(c1ccccc1)c1ccc2nc3n(c2c1)C(c1c(Cl)cccc1Cl)SC3 (configuration not stated) | 4.31 µM (inactive) | 1.27 µM (inactive) | 31.2 µM (inactive) | 13.5 µM (inactive) | 5.58 µM (inactive) | 4.06 µM (inactive) | 25.2 µM (inactive) | 4.79 µM (inactive) | 4.88 µM (inactive) | 5.68 µM (inactive) | 6.31 µM (inactive) | 4.63 µM (inactive) | 4.49 µM (inactive) | 3.37 µM (inactive) | 3.67 µM (inactive) | 1.74 µM (inactive) | 7.64 µM (inactive) | 4.09 µM (inactive) | 18.4 µM (inactive)
2 | Cc1cccc(NC(=S)Nc2cccc(Cl)c2)n1 | 41.9 µM (inactive) | > 100 µM (inactive) | > 56.9 µM (inactive) | > 100 µM (inactive) | 47.1 µM (inactive) | > 75.2 µM (inactive) | > 100 µM (inactive) | > 67.8 µM (inactive) | > 100 µM (inactive) | 30.1 µM (inactive) | > 100 µM (inactive) | > 100 µM (inactive) | > 100 µM (inactive) | 32.1 µM (inactive) | > 65.3 µM (inactive) | 49.9 µM (inactive) | > 100 µM (inactive) | > 100 µM (inactive) | > 100 µM (inactive)
3 | O=C(NCCNCCO)N/N=C/c1ccc(Cl)cc1 | > 100 µM (inactive) | > 100 µM (inactive) | > 100 µM (inactive) | > 100 µM (inactive) | > 100 µM (inactive) | > 100 µM (inactive) | > 100 µM (inactive) | > 100 µM (inactive) | > 100 µM (inactive) | > 100 µM (inactive) | > 100 µM (inactive) |  | > 100 µM (inactive) | > 100 µM (inactive) | > 100 µM (inactive) | > 100 µM (inactive) | > 100 µM (inactive) | > 100 µM (inactive) | > 100 µM (inactive)
4 | CSC(=O)c1sc(SC)[n+](-c2ccccc2)c1O | 34.4 µM (inactive) | 8.28 µM (inactive) | 22.5 µM (inactive) | 16 µM (inactive) | 16.5 µM (inactive) | 15.6 µM (inactive) | 18.2 µM (inactive) | 16.4 µM (inactive) | 27.7 µM (inactive) | 15.1 µM (inactive) | 20.2 µM (inactive) | > 10 µM (inactive) | > 100 µM (inactive) | 14.9 µM (inactive) | 28.3 µM (inactive) | 10.4 µM (inactive) | 19.6 µM (inactive) | 25.4 µM (inactive) | 11.3 µM (inactive)
5 | CC1(C)C2CCC(=O)C1CC2 (configuration not stated) | > 100 µM (inactive) | > 100 µM (inactive) | > 100 µM (inactive) | > 100 µM (inactive) | > 100 µM (inactive) | > 100 µM (inactive) | > 100 µM (inactive) | > 100 µM (inactive) | > 100 µM (inactive) | > 100 µM (inactive) | > 100 µM (inactive) |  | > 100 µM (inactive) | > 100 µM (inactive) | > 100 µM (inactive) | > 100 µM (inactive) | > 100 µM (inactive) | > 100 µM (inactive) | > 100 µM (inactive)
6 | CCCCCCCCCC(=O)NCCc1c[nH]c2ccc(OC)cc12 | 17.4 µM (inactive) | 7.26 µM (inactive) | 19.9 µM (inactive) | 20.2 µM (inactive) | 17 µM (inactive) | 16.3 µM (inactive) | 18.2 µM (inactive) | 17.7 µM (inactive) | 23.8 µM (inactive) | 23.2 µM (inactive) | 23.2 µM (inactive) | 28 µM (inactive) | 19 µM (inactive) | 17.4 µM (inactive) | 20.1 µM (inactive) | 16 µM (inactive) | 17.4 µM (inactive) | 17.5 µM (inactive) | 15.1 µM (inactive)
7 | Cn1c(CCC2(C)Cc3ccccc3C(=O)O2)cc2ccccc2c1=O (configuration not stated) | 30.5 µM (inactive) | 12.7 µM (inactive) | 22 µM (inactive) | 23.7 µM (inactive) | 45.5 µM (inactive) | > 10 µM (inactive) |  |  | 27.1 µM (inactive) | 43.1 µM (inactive) |  |  | 31.2 µM (inactive) | > 100 µM (inactive) | 37.7 µM (inactive) | 16.4 µM (inactive) | 44 µM (inactive) | 24.2 µM (inactive) | 45.1 µM (inactive)
8 | CCc1c(N=[N+]=[N-])c2ccccc2oc1=O | > 100 µM (inactive) | > 100 µM (inactive) | > 100 µM (inactive) | > 100 µM (inactive) | > 100 µM (inactive) | > 100 µM (inactive) | > 100 µM (inactive) | > 100 µM (inactive) | > 100 µM (inactive) | > 100 µM (inactive) | > 100 µM (inactive) | 36.3 µM (inactive) | > 100 µM (inactive) | > 100 µM (inactive) | 49.8 µM (inactive) | > 100 µM (inactive) | > 100 µM (inactive) | > 100 µM (inactive) | > 100 µM (inactive)
9 | O=C1C[C@H](COCc2ccccc2)NC(=O)C[C@H](COCc2ccccc2)NC(=O)C[C@H](COCc2ccccc2)N1 | 19.5 µM (inactive) | > 100 µM (inactive) | > 100 µM (inactive) | > 100 µM (inactive) | 12.6 µM (inactive) | > 100 µM (inactive) | 18.1 µM (inactive) | 40.9 µM (inactive) | > 100 µM (inactive) | 15.3 µM (inactive) | > 100 µM (inactive) | > 100 µM (inactive) | > 100 µM (inactive) | 19.2 µM (inactive) | 39.9 µM (inactive) | > 100 µM (inactive) | > 100 µM (inactive) | > 100 µM (inactive) | 26.7 µM (inactive)
10 | CCOC(=O)c1cccc(NC(=O)CI)c1 | 0.918 µM (active) | 0.0239 µM (active) | 0.601 µM (active) | 1.76 µM (inactive) | 0.313 µM (active) | 0.575 µM (active) | 0.897 µM (active) | 0.67 µM (active) | 0.531 µM (active) | 0.65 µM (active) | 0.313 µM (active) | 1.93 µM (inactive) | 1.75 µM (inactive) | 2.47 µM (inactive) | 2.34 µM (inactive) | 0.179 µM (active) | 0.29 µM (active) | 0.394 µM (active) | 1.31 µM (inactive)
11 | Oc1ccc(-c2cc(-c3c(O)cc(O)cc3O)on2)cc1 | 56.5 µM (inactive) | 23.2 µM (inactive) | 70.8 µM (inactive) | 53.1 µM (inactive) | 64.7 µM (inactive) | 31.3 µM (inactive) | 55.1 µM (inactive) | 44.3 µM (inactive) | > 10 µM (inactive) | 31.9 µM (inactive) | 37 µM (inactive) | 62.7 µM (inactive) | 54.2 µM (inactive) | 74.3 µM (inactive) | 38.2 µM (inactive) | 51.6 µM (inactive) | 80.5 µM (inactive) | 89.5 µM (inactive) | > 100 µM (inactive)
12 | CSCCCNC(=O)c1csc([C@@H](CSC)NC(=O)CCNC(=O)[C@@H](NC(=O)OCC(Br)(Br)Br)C(C)O)n1 (some centres not stated) | > 100 µM (inactive) | > 100 µM (inactive) | > 100 µM (inactive) | > 100 µM (inactive) | > 100 µM (inactive) | > 100 µM (inactive) | > 100 µM (inactive) | > 100 µM (inactive) | > 100 µM (inactive) | > 100 µM (inactive) | > 100 µM (inactive) | 75.5 µM (inactive) | > 100 µM (inactive) | > 100 µM (inactive) | > 100 µM (inactive) | > 100 µM (inactive) | > 100 µM (inactive) | 94.2 µM (inactive) | > 100 µM (inactive)
13 | O=C1Oc2ccccc2C(=O)/C1=C\Nc1nc(-c2ccccc2)cs1 | 33.4 µM (inactive) | 1.35 µM (inactive) | 3.24 µM (inactive) | 15.3 µM (inactive) | 11.8 µM (inactive) | 5.36 µM (inactive) | 2.21 µM (inactive) | 8.75 µM (inactive) | 2.6 µM (inactive) | 2.94 µM (inactive) | 5.21 µM (inactive) | 19.5 µM (inactive) | 31 µM (inactive) | 25.9 µM (inactive) | 15.7 µM (inactive) | 2.31 µM (inactive) | 7.08 µM (inactive) | 4.07 µM (inactive) | 18.9 µM (inactive)
14 | NC(=S)N/N=C1\CCCC1C(O)(C(F)(F)Cl)C(F)(F)Cl (configuration not stated) | > 10 µM (inactive) | > 10 µM (inactive) | > 10 µM (inactive) | > 10 µM (inactive) | > 10 µM (inactive) | 8.63 µM (inactive) | > 10 µM (inactive) | > 10 µM (inactive) | > 10 µM (inactive) | > 10 µM (inactive) | > 10 µM (inactive) | > 10 µM (inactive) | > 10 µM (inactive) | > 10 µM (inactive) | > 10 µM (inactive) | > 10 µM (inactive) | > 10 µM (inactive) | > 10 µM (inactive) | > 10 µM (inactive)
15 | C=C1CC[C@@H]2[C@](C)(COC(=O)CCC(=O)OC)CCC[C@@]2(C)[C@@H]1CCC1=CC(=O)OC1 | > 100 µM (inactive) | 28.2 µM (inactive) | 74.3 µM (inactive) | 71.4 µM (inactive) | > 100 µM (inactive) |  | > 100 µM (inactive) |  | 77.8 µM (inactive) | > 100 µM (inactive) | > 100 µM (inactive) | > 100 µM (inactive) | > 100 µM (inactive) | > 100 µM (inactive) | 77.6 µM (inactive) | 25.9 µM (inactive) | > 100 µM (inactive) | 38.1 µM (inactive) | > 100 µM (inactive)
